Experiments:
Italian ryegrass [1] = assay: Test Example 4: herbicidal effect by soil treatment (Table 19, symbol K); assay type: in vivo, Italian ryegrass (Lolium multiflorum)
Summary of the method: (§1)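 Herbicidal effect was rated 3 weeks after treatment, using the scoring criteria of an earlier test. The compound, formulated as an emulsion and diluted in water to a set herbicide amount, had been sprayed uniformly on soil over freshly sown seeds. Growth took place in a greenhouse at 25° C. to 30° C.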

rice flat sedge = assay: Test Example 3: herbicidal effect by foliage application, Wagner pot (Table 18, symbol E); assay type: in vivo, rice flat sedge (Cyperus iria)
Summary of the method: (§2)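 Plants were sown in alluvial soil held under 0.1–0.5 cm standing water and grown 14 days in a greenhouse at 25–30 °C. An emulsifiable formulation, water-diluted to the set dose, was then sprayed onto the foliage, and effects were scored three weeks later using previously defined criteria.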

Chinese sprangletop = assay: Test Example 3: herbicidal effect by foliage application, Wagner pot (Table 18, symbol D); assay type: in vivo, chinese sprangletop (Leptochloa chinensis)
Summary of the method: as §2

barnyard grass [2] = assay: Test Example 5: herbicidal effect by foliage application, plastic box (Table 20, symbol H); assay type: in vivo, barnyard grass (Echinochloa crus-galli); conditions: foliage application, 320 g/ha, 3 weeks after application
Summary of the method: (§3)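 Foliar spray test: emulsion formulation diluted in water to a set application rate, sprayed onto 14-day-old plants raised in diluvial soil at 25° C to 30° C under glass. Both herbicidal effect and crop effect rated visually three weeks later.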

velvetleaf [3] = assay: Test Example 5: herbicidal effect by foliage application, plastic box (Table 20, symbol M); assay type: in vivo, velvetleaf (Abutilon theophrasti); conditions: foliage application, 320 g/ha, 3 weeks after application
Summary of the method: as §3

windgrass [4] = assay: Test Example 5: herbicidal effect by foliage application, plastic box (Table 20, symbol L); assay type: in vivo, windgrass (Apera spica-venti); conditions: foliage application, 320 g/ha, 3 weeks after application
Summary of the method: as §3

green foxtail [5] = assay: Test Example 4: herbicidal effect by soil treatment (Table 19, symbol G); assay type: in vivo, green foxtail (Setaria viridis)
Summary of the method: as §1

wild oat [6] = assay: Test Example 5: herbicidal effect by foliage application, plastic box (Table 20, symbol I); assay type: in vivo, wild oat (Avena fatua); conditions: foliage application, 320 g/ha, 3 weeks after application
Summary of the method: as §3

green foxtail [7] = assay: Test Example 5: herbicidal effect by foliage application, plastic box (Table 20, symbol G); assay type: in vivo, green foxtail (Setaria viridis); conditions: foliage application, 320 g/ha, 3 weeks after application
Summary of the method: as §3

chickweed = assay: Test Example 4: herbicidal effect by soil treatment (Table 19, symbol P); assay type: in vivo, common chickweed (Stellaria media)
Summary of the method: as §1

barnyard grass [8] = assay: Test Example 4: herbicidal effect by soil treatment (Table 19, symbol H); assay type: in vivo, barnyard grass (Echinochloa crus-galli)
Summary of the method: as §1

southern crabgrass [9] = assay: Test Example 5: herbicidal effect by foliage application, plastic box (Table 20, symbol F); assay type: in vivo, southern crabgrass (Digitaria ciliaris); conditions: foliage application, 320 g/ha, 3 weeks after application
Summary of the method: as §3

blackgrass [10] = assay: Test Example 5: herbicidal effect by foliage application, plastic box (Table 20, symbol J); assay type: in vivo, blackgrass (Alopecurus myosuroides); conditions: foliage application, 320 g/ha, 3 weeks after application
Summary of the method: as §3

windgrass [11] = assay: Test Example 4: herbicidal effect by soil treatment (Table 19, symbol L); assay type: in vivo, windgrass (Apera spica-venti)
Summary of the method: as §1

redroot pigweed = assay: Test Example 4: herbicidal effect by soil treatment (Table 19, symbol N); assay type: in vivo, redroot pigweed (Amaranthus retroflexus)
Summary of the method: as §1

southern crabgrass [12] = assay: Test Example 4: herbicidal effect by soil treatment (Table 19, symbol F); assay type: in vivo, southern crabgrass (Digitaria ciliaris)
Summary of the method: as §1

persian speedwell [13] = assay: Test Example 4: herbicidal effect by soil treatment (Table 19, symbol R); assay type: in vivo, Persian speedwell (Veronica persica)
Summary of the method: as §1

velvetleaf [14] = assay: Test Example 4: herbicidal effect by soil treatment (Table 19, symbol M); assay type: in vivo, velvetleaf (Abutilon theophrasti)
Summary of the method: as §1

lambsquarters [15] = assay: Test Example 5: herbicidal effect by foliage application, plastic box (Table 20, symbol O); assay type: in vivo, lambsquarters (Chenopodium album); conditions: foliage application, 320 g/ha, 3 weeks after application
Summary of the method: as §3

barnyard grass [16] = assay: Test Example 3: herbicidal effect by foliage application, Wagner pot (Table 18, symbol H); assay type: in vivo, barnyard grass (Echinochloa crus-galli)
Summary of the method: as §2

persian speedwell [17] = assay: Test Example 5: herbicidal effect by foliage application, plastic box (Table 20, symbol R); assay type: in vivo, Persian speedwell (Veronica persica); conditions: foliage application, 320 g/ha, 3 weeks after application
Summary of the method: as §3

Italian ryegrass [18] = assay: Test Example 5: herbicidal effect by foliage application, plastic box (Table 20, symbol K); assay type: in vivo, Italian ryegrass (Lolium multiflorum); conditions: foliage application, 320 g/ha, 3 weeks after application
Summary of the method: as §3

lambsquarters [19] = assay: Test Example 4: herbicidal effect by soil treatment (Table 19, symbol O); assay type: in vivo, lambsquarters (Chenopodium album)
Summary of the method: as §1

wild oat [20] = assay: Test Example 4: herbicidal effect by soil treatment (Table 19, symbol I); assay type: in vivo, wild oat (Avena fatua)
Summary of the method: as §1

blackgrass [21] = assay: Test Example 4: herbicidal effect by soil treatment (Table 19, symbol J); assay type: in vivo, blackgrass (Alopecurus myosuroides)
Summary of the method: as §1

[22] = amount of applied herbicide 320 g/ha
[23] = amount of applied herbicide 84 g/ha

## Cc1nn(C)c(=O)c(-c2c(-c3ccc(F)cc3)sc3ccc(F)cc23)c1OCC(=O)c1ccccc1 [2-008]
Italian ryegrass [1]; 320 g/ha
  herbicidal effect rating, K: Italian ryegrass: 0 (Herbicidal rate of 5% or less (almost no effect))
Rice flat sedge; 320 g/ha
  herbicidal effect on E (rice flat sedge), rating 0-5: 4 (Herbicidal rate of 70% or more and less than 90%)
Chinese sprangletop; 320 g/ha
  herbicidal effect on D (Chinese sprangletop), rating 0-5: 1 (Herbicidal rate of 5% or more and less than 20%)
Barnyard grass [2]
  effect on barnyard grass (H): 0 (Herbicidal rate of 5% or less (almost no effect))
Velvetleaf [3]
  effect on velvetleaf (M): 1 (Herbicidal rate of 5% or more and less than 20%)
Windgrass [4]
  effect on windgrass (L): 0 (Herbicidal rate of 5% or less (almost no effect))
Green foxtail [5]; 320 g/ha
  herbicidal effect rating, G: green foxtail: 0 (Herbicidal rate of 5% or less (almost no effect))
Wild oat [6]
  effect on wild oat (I): 0 (Herbicidal rate of 5% or less (almost no effect))
Green foxtail [7]
  effect on green foxtail (G): 0 (Herbicidal rate of 5% or less (almost no effect))
chickweed; 320 g/ha
  herbicidal effect rating, P: chickweed: 0 (Herbicidal rate of 5% or less (almost no effect))
Barnyard grass [8]; 320 g/ha
  herbicidal effect rating, H: barnyard grass: 0 (Herbicidal rate of 5% or less (almost no effect))
Southern crabgrass [9]
  effect on southern crabgrass (F): 0 (Herbicidal rate of 5% or less (almost no effect))
Blackgrass [10]
  effect on blackgrass (J): 0 (Herbicidal rate of 5% or less (almost no effect))
Windgrass [11]; 320 g/ha
  herbicidal effect rating, L: windgrass: 0 (Herbicidal rate of 5% or less (almost no effect))
Redroot pigweed; 320 g/ha
  herbicidal effect rating, N: redroot pigweed: 4 (Herbicidal rate of 70% or more and less than 90%)
Southern crabgrass [12]; 320 g/ha
  herbicidal effect rating, F: southern crabgrass: 0 (Herbicidal rate of 5% or less (almost no effect))
Persian speedwell [13]; 320 g/ha
  herbicidal effect rating, R: persian speedwell: 0 (Herbicidal rate of 5% or less (almost no effect))
Velvetleaf [14]; 320 g/ha
  herbicidal effect rating, M: velvetleaf: 0 (Herbicidal rate of 5% or less (almost no effect))
Lambsquarters [15]
  effect on lambsquarters (O): 1 (Herbicidal rate of 5% or more and less than 20%)
Barnyard grass [16]; 320 g/ha
  herbicidal effect on H (barnyard grass), rating 0-5: 2 (Herbicidal rate of 20% or more and less than 40%)
Persian speedwell [17]
  effect on persian speedwell (R): 3 (Herbicidal rate of 40% or more and less than 70%)
Italian ryegrass [18]
  effect on Italian ryegrass (K): 3 (Herbicidal rate of 40% or more and less than 70%)
Lambsquarters [19]; 320 g/ha
  herbicidal effect rating, O: lambsquarters: 0 (Herbicidal rate of 5% or less (almost no effect))
Wild oat [20]; 320 g/ha
  herbicidal effect rating, I: wild oat: 0 (Herbicidal rate of 5% or less (almost no effect))

## COc1cc(Cl)ccc1-c1sc2ccc(F)cc2c1-c1c(O)c(C)nn(C)c1=O [2-368]
Italian ryegrass [1]; [22]
  herbicidal effect, K: Italian ryegrass: 0 (Herbicidal rate of 5% or less (almost no effect))
Rice flat sedge; [22]
  herbicidal effect on E: rice flat sedge: 3 (Herbicidal rate of 40% or more and less than 70%)
Chinese sprangletop; [22]
  herbicidal effect on D: Chinese sprangletop: 3 (Herbicidal rate of 40% or more and less than 70%)
Green foxtail [5]; [22]
  herbicidal effect, G: green foxtail: 0 (Herbicidal rate of 5% or less (almost no effect))
chickweed; [22]
  herbicidal effect, P: chickweed: 0 (Herbicidal rate of 5% or less (almost no effect))
Barnyard grass [8]; [22]
  herbicidal effect, H: barnyard grass: 0 (Herbicidal rate of 5% or less (almost no effect))
Windgrass [11]; [22]
  herbicidal effect, L: windgrass: 4 (Herbicidal rate of 70% or more and less than 90%)
Redroot pigweed; [22]
  herbicidal effect, N: redroot pigweed: 2 (Herbicidal rate of 20% or more and less than 40%)
Southern crabgrass [12]; [22]
  herbicidal effect, F: southern crabgrass: 0 (Herbicidal rate of 5% or less (almost no effect))
Persian speedwell [13]; [22]
  herbicidal effect, R: persian speedwell: 0 (Herbicidal rate of 5% or less (almost no effect))
Velvetleaf [14]; [22]
  herbicidal effect, M: velvetleaf: 0 (Herbicidal rate of 5% or less (almost no effect))
Barnyard grass [16]; [22]
  herbicidal effect on H: barnyard grass: 4 (Herbicidal rate of 70% or more and less than 90%)
Blackgrass [21]; [22]
  herbicidal effect, J: blackgrass: 0 (Herbicidal rate of 5% or less (almost no effect))
Lambsquarters [19]; [22]
  herbicidal effect, O: lambsquarters: 3 (Herbicidal rate of 40% or more and less than 70%)
Wild oat [20]; [22]
  herbicidal effect, I: wild oat: 0 (Herbicidal rate of 5% or less (almost no effect))

## Cc1nn(C)c(=O)c(-c2c(-c3c(F)cc(F)cc3F)sc3ccc(F)cc23)c1O [2-372]
Italian ryegrass [1]; [23]
  herbicidal effect, K: Italian ryegrass: 2 (Herbicidal rate of 20% or more and less than 40%)
Rice flat sedge; [23]
  herbicidal effect on E: rice flat sedge: 3 (Herbicidal rate of 40% or more and less than 70%)
Chinese sprangletop; [23]
  herbicidal effect on D: Chinese sprangletop: 4 (Herbicidal rate of 70% or more and less than 90%)
Green foxtail [5]; [23]
  herbicidal effect, G: green foxtail: 0 (Herbicidal rate of 5% or less (almost no effect))
chickweed; [23]
  herbicidal effect, P: chickweed: 0 (Herbicidal rate of 5% or less (almost no effect))
Barnyard grass [8]; [23]
  herbicidal effect, H: barnyard grass: 0 (Herbicidal rate of 5% or less (almost no effect))
Windgrass [11]; [23]
  herbicidal effect, L: windgrass: 0 (Herbicidal rate of 5% or less (almost no effect))
Redroot pigweed; [23]
  herbicidal effect, N: redroot pigweed: 0 (Herbicidal rate of 5% or less (almost no effect))
Southern crabgrass [12]; [23]
  herbicidal effect, F: southern crabgrass: 0 (Herbicidal rate of 5% or less (almost no effect))
Persian speedwell [13]; [23]
  herbicidal effect, R: persian speedwell: 0 (Herbicidal rate of 5% or less (almost no effect))
Velvetleaf [14]; [23]
  herbicidal effect, M: velvetleaf: 0 (Herbicidal rate of 5% or less (almost no effect))
Barnyard grass [16]; [23]
  herbicidal effect on H: barnyard grass: 4 (Herbicidal rate of 70% or more and less than 90%)
Blackgrass [21]; [23]
  herbicidal effect, J: blackgrass: 0 (Herbicidal rate of 5% or less (almost no effect))
Lambsquarters [19]; [23]
  herbicidal effect, O: lambsquarters: 0 (Herbicidal rate of 5% or less (almost no effect))
Wild oat [20]; [23]
  herbicidal effect, I: wild oat: 0 (Herbicidal rate of 5% or less (almost no effect))

## CCCC(=O)Oc1c(C)nn(C)c(=O)c1-c1c(-c2cnccc2F)sc2ccc(F)cc12 [2-384]
Italian ryegrass [1]; [22]
  herbicidal effect, K: Italian ryegrass: 4 (Herbicidal rate of 70% or more and less than 90%)
Rice flat sedge; [22]
  herbicidal effect on E: rice flat sedge: 3 (Herbicidal rate of 40% or more and less than 70%)
Chinese sprangletop; [22]
  herbicidal effect on D: Chinese sprangletop: 3 (Herbicidal rate of 40% or more and less than 70%)
Green foxtail [5]; [22]
  herbicidal effect, G: green foxtail: 4 (Herbicidal rate of 70% or more and less than 90%)
chickweed; [22]
  herbicidal effect, P: chickweed: 4 (Herbicidal rate of 70% or more and less than 90%)
Barnyard grass [8]; [22]
  herbicidal effect, H: barnyard grass: 3 (Herbicidal rate of 40% or more and less than 70%)
Windgrass [11]; [22]
  herbicidal effect, L: windgrass: 0 (Herbicidal rate of 5% or less (almost no effect))
Redroot pigweed; [22]
  herbicidal effect, N: redroot pigweed: 4 (Herbicidal rate of 70% or more and less than 90%)
Southern crabgrass [12]; [22]
  herbicidal effect, F: southern crabgrass: 3 (Herbicidal rate of 40% or more and less than 70%)
Persian speedwell [13]; [22]
  herbicidal effect, R: persian speedwell: 4 (Herbicidal rate of 70% or more and less than 90%)
Velvetleaf [14]; [22]
  herbicidal effect, M: velvetleaf: 2 (Herbicidal rate of 20% or more and less than 40%)
Barnyard grass [16]; [22]
  herbicidal effect on H: barnyard grass: 3 (Herbicidal rate of 40% or more and less than 70%)
Blackgrass [21]; [22]
  herbicidal effect, J: blackgrass: 0 (Herbicidal rate of 5% or less (almost no effect))
Lambsquarters [19]; [22]
  herbicidal effect, O: lambsquarters: 3 (Herbicidal rate of 40% or more and less than 70%)
Wild oat [20]; [22]
  herbicidal effect, I: wild oat: 1 (Herbicidal rate of 5% or more and less than 20%)
